Measurements: patent publication US11299472B2, “Fumarate salt of (R)-3-(1-(2,3-dichloro-4-(pyrazin-2-yl)phenyl)-2,2,2- trifluoroethyl)-1-methyl-1-(1-methylpiperidin-4-yl) urea, methods of preparation, and uses thereof” (Helsinn Healthcare SA, priority 2017, dated 2022)

How the values were obtained:
[1] = Dog pharmacokinetic study, HM04 free base vs HM04 fumarate salt (Example 9); type: in vivo, male Beagle dogs; details: for HM04 plasma concentration: 2 mg/kg oral, mean ± S.D., n=3
[2] = Rat pharmacokinetic study, HM04 free base vs HM04 fumarate salt (Example 9); type: in vivo, male Sprague Dawley rats; details: 3 mg/kg oral, mean ± S.D., n=3
Description: The pharmacokinetics of HM04 in plasma of male Sprague Dawley rats dosed with a single oral administration of 3 mg/kg HM04 (based on the weight of the free base) formulated in a solution of 10% DMAC, 6% Solutol, and 84% PBS using either the HM04 free base or HM04 fumarate salt were compared. Blood samples were withdrawn at set time intervals and plasma concentration of HM04 was measured by LC-MS/MS. A comparison of the plasma concentration of HM04 (ng/mL) over time in rats dosed orally with HM04 free base and HM04 fumarate salt is provided in FIG. 17.

[3] = as above; type: in vivo, male Sprague Dawley rats
[4] = system: Snord116+/− (Het) mice and wild-type (WT) littermates; test: Food intake after acute administration in Prader-Willi mouse model; type: in vivo; details: for cumulative food intake: fasted 16 hours
Excerpt: (§1) The effect of HM04 fumarate salt on food intake behavior and glucose tolerance was investigated in the Snord116+/−(Het) mouse genetic model of Prader-Willi syndrome (Het mouse) compared to wild-type (WT) littermates. Since D2R agonists suppress food intake, the FDA approved D2R agonist cabergoline was used as an experimental control. Phenotypic characteristics of this PWS mouse model include hyperphagia, postnatal growth retardation, high ghrelin, and low growth hormone. Ding F., et al. SnoRNA Snord116 (Pwcr1/MBII-85) deletion causes growth deficiency and hyperphagia in mice. PloS one. 2008; 3(3):e1709. These PWS mice eat more frequently than WT littermates, particularly during the light cycle and are more motivated to work for food (more level presses) (data not shown).
Acute administration: Mice (3-, 7-, and 12-month-old) were fasted for 16 hours and then administered a single intraperitoneal injection of vehicle or vehicle containing HM04, cabergoline, or HM04 and cabergoline according to Table 8, below.
HM04 was dissolved in water for injection and cabergoline was dissolved in DMSO to provide a 5% DMSO/water solution for injection. Mice were then given free access to food, and cumulative food intake was measured at 1, 2, 4, 8, 12, and 24 hours post-dosing. […] Data was analyzed for significance using 2-way ANOVA, Bonferroni post hoc test (Graphpad Prism, Prism 5.0, San Diego, Calif.).

[5] = system: Snord116+/− (Het) mice and wild-type (WT) littermates; test: Food intake and body weight after daily administration in Prader-Willi mouse model; type: in vivo
Excerpt: as §1
Food intake and body weight were measured daily.

[6] = system: ghrelin-induced increase of GH; test: Ghrelin-induced increase of growth hormone in rats; type: in vivo; details: 30 mg/kg HM04 fumarate salt p.o. 2 hours before 15 μg/kg ghrelin i.v., 15 minutes after ghrelin
Description: Rats were divided into four groups: 1) 1 ml/kg saline plus 10 ml/kg 0.5% CMC p.o. (n=6); 2) 15 μg/kg ghrelin i.v. plus 10 ml/kg 0.5% CMC p.o. (n=6); 3) 30 mg/kg HM04 fumarate salt p.o. 2 hours before 15 μg/kg ghrelin i.v. (n=6); 4) 10 mg/kg ghrelin antagonist R011 i.p. 30 minutes before 15 μg/kg ghrelin i.v. (n=6). Blood was collected as 100 μl samples at time 0 and at 15 minutes after ghrelin injection. Rats were anesthetized with 64.8 mg/kg sodium pentobarbital. A catheter filled with heparinized saline solution was inserted in the left femoral artery for blood collection and fitted with an extension tube, 1-mL sampling syringe, and a 3-way cock to allow excess blood to return.
Plasma levels of growth hormone (GH) were determined using Rat GH ELISA (Millipore, Catalog No. EZRMGH-45K). Measurements were performed in duplicate. […] One-way and two-way ANOVA test was used to compare differences between groups. All values are presented as mean±SEM. One-way ANOVA was performed followed by Turkey's post hoc test where significance was indicated by p values<0.05 or p values<0.01.

[7] = 6-month-old Het mice, HM04 10 mg/kg i.p. daily at 07.00 hours for 10 days
[8] = 6-month-old WT mice, HM04 10 mg/kg i.p. daily at 07.00 hours for 10 days
[9] = 8-month-old Het mice, HM04 30 mg/kg oral daily at 07.00 hours for 5 days
[10] = 8-month-old Het mice, HM04 30 mg/kg oral daily at 18.00 hours for 5 days
[11] = 8-month-old WT mice, HM04 30 mg/kg oral daily at 07.00 hours for 5 days

`CN1CCC(N(C)C(=O)N[C@H](c2ccc(-c3cnccn3)c(Cl)c2Cl)C(F)(F)F)CC1.O=C(O)/C=C/C(=O)O` [HM04 fumarate salt, (R)-3-(1-(2,3-dichloro-4-(pyrazin-2-yl)phenyl)-2,2,2-trifluoroethyl)-1-methyl-1-(1-methylpiperidin-4-yl)urea fumarate salt] gave an HM04 plasma concentration ([1]; 1 hour) of 227.4 ± 52.2 ng/mL, an HM04 plasma concentration ([1]; 4 hours) of 152.9 ± 56.9 ng/mL and an HM04 plasma concentration ([1]; 8 hours) of 70.2 ± 41.0 ng/mL. For the same molecule, the HM04 plasma concentration ([1]; 24 hours) was 13.1 ± 13.2 ng/mL, the AUC ([1]; male, Beagle, plasma, 1 mg/kg intravenous, three dogs, read-out: mean AUC following intravenous administration) was 1130 ± 364 ng·h/mL and the HM04 plasma concentration ([2]; 0.50 hours) was 325.9 ± 187.8 ng/mL. It also gave an HM04 plasma concentration ([2]; 1 hour) of 201.0 ± 38.7 ng/mL, an HM04 plasma concentration ([2]; 2 hours) of 173.9 ± 12.2 ng/mL and an HM04 plasma concentration ([2]; 8 hours) of 42.3 ± 2.5 ng/mL. For the same molecule, the AUC(0-t) ([2]; male, Sprague Dawley, plasma) was 970 ± 147 ng·h/mL, the Tmax ([2]; male, Sprague Dawley, plasma) was 49.8 ± 17.4 min and the HM04 plasma concentration ([3]; 3 mg/kg oral, 0.25 hours, mean ± S.D., n=3) was 107.8 ± 27.8 ng/mL. For the same molecule, the HM04 plasma concentration ([3]; 3 mg/kg oral, 4 hours, mean ± S.D., n=3) was 108.3 ± 38.3 ng/mL, the AUC ([3]; male, Sprague Dawley, plasma, 3 mg/kg intravenous, three rats, read-out: mean AUC following intravenous administration) was 2100 ± 358 ng·h/mL and the bioavailability ([3]; male, Sprague Dawley, plasma, 3 mg/kg oral vs 3 mg/kg intravenous mean AUC) was 46.1 ± 6.99%. It also gave a Cmax ([3]; male, Sprague Dawley, plasma, 3 mg/kg oral, mean ± S.D., n=3) of 329 ± 185 ng/mL.

For `CN1CCC(N(C)C(=O)N[C@H](c2ccc(-c3cnccn3)c(Cl)c2Cl)C(F)(F)F)CC1` [HM04, (R)-3-(1-(2,3-dichloro-4-(pyrazin-2-yl)phenyl)-2,2,2-trifluoroethyl)-1-methyl-1-(1-methylpiperidin-4-yl)urea], the cumulative food intake ([4]; 3-month-old Het mice, HM04 10 mg/kg single i.p.) was “significantly suppressed food intake at 12 and 24 hours post-dosing”, the cumulative food intake ([4]; 3-month-old WT mice, HM04 10 mg/kg single i.p.) was “failed to inhibit food intake” and the cumulative food intake ([4]; 7-month-old Het mice, HM04 10 mg/kg single i.p.) was “did not inhibit food intake”. For the same molecule, the food intake ([4]; 7-month-old Het mice, HM04 30 mg/kg single i.p.) was “inhibited food intake for up to 8 hours”, the cumulative food intake ([4]; 7-month-old WT mice, HM04 10 mg/kg single i.p.) was “did not inhibit food intake” and the food intake ([4]; 7-month-old WT mice, HM04 30 mg/kg single i.p.) was “no apparent effect on food intake”. For the same molecule, the food intake ([4]; 12-month-old Het mice, HM04 10 mg/kg single i.p., 1 hour after dosing) was “suppressed food intake”, the food intake ([4]; 12-month-old Het mice, HM04 10 mg/kg single i.p., after 1 hour (up to 24 hours)) was “that level of inhibition was not maintained” and the food intake ([4]; 12-month-old WT mice, HM04 10 mg/kg i.p.) was “did not reduce food intake”. For the same molecule, the body weight [5, 7] was “no apparent effect”, the food intake [5, 7] was “no apparent effect” and the body weight [5, 8] was “no apparent effect”. For the same molecule, the food intake [5, 8] was “no apparent effect”, the body weight [5, 9] was “unaffected” and the food intake [5, 9] was “significant decrease in food intake was observed by day 2, but not on subsequent days”. For the same molecule, the “food consumption during the dark cycle” value [5, 10] was “suppression of food consumption was not observed”, the “food intake during the subsequent light cycle (06.00-18.00)” value [5, 10] was “food intake was lower in HM04-treated Het mice, but not WT mice on days 2, 3, 4, and 5 and reached significance on day 5” and the body weight [5, 11] was “No reduction in food intake or body weight”. The food intake [5, 11] was “No reduction in food intake”, the “food consumption during the dark cycle” value ([5]; 8-month-old WT mice, HM04 30 mg/kg oral daily at 18.00 hours for 5 days) was “suppression of food consumption was not observed” and the “inhibition of ghrelin-induced increase of GH” value [6] was 35%.
